As a reminder, the T/C is the ratio of treated to control.

The structures appear in SMILES notation. “And” between values parts separate entries of the source, which are not always exact repeats. Equal entries are not always repeated.

The test system of the assay is Swiss mice, Sarcoma 180 sc, mean tumor weight T/C. Put plainly: NCI In Vivo Anticancer Drug Screen. Data for tumor model Sarcoma 180 (subcutaneous) in Swiss mice. The conditions noted are these: endpoint: mean tumor weight, higher = larger tumour. In short, it runs like this:
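Transplantable tumors were established in mice, compound was given, then survival or tumor size was recorded. The treated value was divided by the vehicle-control value.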

Setting [1] is: dose: 35.0 mg/kg/injection, schedule: Q01DX007 (ip), vehicle: carboxymethylcellulose (CMC).
Setting [2] is: dose: 25.0 mg/kg/injection, schedule: Q01DX007 (ip), vehicle: carboxymethylcellulose (CMC).
Setting [3] is: dose: 50.0 mg/kg/injection, schedule: Q01DX007 (ip), vehicle: carboxymethylcellulose (CMC).
Where [4] appears, read: dose: 187.5 mg/kg/injection, schedule: Q#A X014 (ip), vehicle: methylcellulose (MC).

For the compound `Nc1nc(=S)c2ncn(C3OC(COC(=O)c4ccc([N+](=O)[O-])cc4)C(OC(=O)c4ccc([N+](=O)[O-])cc4)C3OC(=O)c3ccc([N+](=O)[O-])cc3)c2[nH]1` (stereo not drawn), the T/C reads like this: (dose: 4.0 mg/kg/injection, schedule: Q01DX007 (ip), vehicle: carboxymethylcellulose (CMC)) 77 % of control; (dose: 7.0 mg/kg/injection, schedule: Q01DX007 (ip), vehicle: carboxymethylcellulose (CMC)) 94 % of control; (dose: 15.0 mg/kg/injection, schedule: Q01DX007 (ip), vehicle: carboxymethylcellulose (CMC)) 93 % of control and 110 % of control; (dose: 23.0 mg/kg/injection, schedule: Q01DX007 (ip), vehicle: methylcellulose (MC)) 63 % of control; under setting [1], 37 % of control; (dose: 36.0 mg/kg/injection, schedule: Q01DX007 (ip), vehicle: carboxymethylcellulose (CMC)) 29 % of control and 32 % of control. Besides, the T/C (dose: 36.0 mg/kg/injection, schedule: Q01DX007 (ip), vehicle: methylcellulose (MC)) is 77 % of control; the T/C (dose: 53.0 mg/kg/injection, schedule: Q01DX007 (ip), vehicle: carboxymethylcellulose (CMC)) was 15 % of control and 30 % of control; the T/C (dose: 53.0 mg/kg/injection, schedule: Q01DX007 (ip), vehicle: methylcellulose (MC)) was 56 % of control; the T/C (dose: 80.0 mg/kg/injection, schedule: Q01DX007 (ip), vehicle: carboxymethylcellulose (CMC)) was 16 % of control; the T/C (dose: 80.0 mg/kg/injection, schedule: Q01DX007 (ip), vehicle: methylcellulose (MC)) is 62 % of control.
On to `CCc1nc(N)nc(N)c1-c1ccc(Cl)cc1`, for which the T/C by setting is: (dose: 6.25 mg/kg/injection, schedule: Q01DX007 (ip), vehicle: carboxymethylcellulose (CMC)) 114 % of control; (dose: 12.5 mg/kg/injection, schedule: Q01DX007 (ip), vehicle: carboxymethylcellulose (CMC)) 88 % of control; under setting [2], 114 % of control; under setting [3], 77 % of control.
Consider `Clc1c(Cl)c(Cl)c(SCc2ccccc2)c(Cl)c1Cl`, for which the T/C was 83 % of control (dose: 111.0 mg/kg/injection, schedule: Q#A X014 (ip), vehicle: saline); 70 % of control (dose: 166.5 mg/kg/injection, schedule: Q#A X014 (ip), vehicle: saline); 42 % of control (dose: 250.0 mg/kg/injection, schedule: Q#A X014 (ip), vehicle: saline); 38 % of control (dose: 375.0 mg/kg/injection, schedule: Q#A X014 (ip), vehicle: saline).
With `COc1ccc(CSc2ncnc3nc[nH]c23)cc1`, the T/C is, setting by setting: (dose: 55.5 mg/kg/injection, schedule: Q#A X014 (ip), vehicle: methylcellulose (MC)) 48 % of control; (dose: 83.0 mg/kg/injection, schedule: Q#A X014 (ip), vehicle: methylcellulose (MC)) 29 % of control; (dose: 125.0 mg/kg/injection, schedule: Q#A X014 (ip), vehicle: methylcellulose (MC)) 14 % of control; under setting [4], 10 % of control.
As for `C[C@@H]1C[C@@]2(C)[C@@H](CC[C@@H]3[C@@H]2CC[C@]2(C)[C@@H](O)CC[C@@H]32)CC1=O`, the T/C was 120 % of control (dose: 25.0 mg/kg/injection, schedule: Q#A X014 (oral), vehicle: steriod suspending solution); 75 % of control (dose: 75.0 mg/kg/injection, schedule: Q#A X014 (oral), vehicle: steriod suspending solution); 63 % of control (dose: 187.5 mg/kg/injection, schedule: Q#A X014 (oral), vehicle: steriod suspending solution).
As to `ON=C1c2cc(Cl)ccc2-c2ccc(Cl)cc21`, the T/C runs as follows: (dose: 26.6 mg/kg/injection, schedule: Q01DX007 (ip), vehicle: carboxymethylcellulose (CMC)) 77 % of control; (dose: 40.0 mg/kg/injection, schedule: Q01DX007 (ip), vehicle: carboxymethylcellulose (CMC)) 71 % of control; (dose: 60.0 mg/kg/injection, schedule: Q01DX007 (ip), vehicle: carboxymethylcellulose (CMC)) 61 % of control; (dose: 90.0 mg/kg/injection, schedule: Q01DX007 (ip), vehicle: carboxymethylcellulose (CMC)) 57 % of control.
For the compound `O=C(O)CC[S-].[Ag+]`, the T/C was 59 % of control and 68 % of control under setting [4]; 69 % of control (dose: 281.0 mg/kg/injection, schedule: Q#A X014 (ip), vehicle: methylcellulose (MC)).
Take `COC(=O)[C@@H]1c2cc3c(c(O)c2[C@@H](OC2OC(C)C(OC)C(C)(OC)C2OC)C[C@]1(C)O)C(=O)c1c(O)cc2c(c1C3=O)O[C@H]1O[C@]2(C)[C@H](O)[C@@H](N(C)C)[C@@H]1O` (stereo partly drawn): the T/C is, setting by setting: (dose: 0.2 mg/kg/injection, schedule: Q01DX007 (ip), vehicle: saline) 77 % of control; (dose: 0.3 mg/kg/injection, schedule: Q01DX007 (ip), vehicle: saline) 81 % of control; (dose: 0.44 mg/kg/injection, schedule: Q01DX007 (ip), vehicle: saline) 60 % of control; (dose: 0.67 mg/kg/injection, schedule: Q01DX007 (ip), vehicle: saline) 57 % of control; (dose: 1.0 mg/kg/injection, schedule: Q01DX007 (ip), vehicle: saline) 50 % of control.
As to `C[C@]12CC[C@@H]3c4ccc(OC(=O)c5ccccc5)cc4CC[C@H]3[C@@H]1CC[C@@H]2O`, the T/C is, setting by setting: (dose: 125.0 mg/kg/injection, schedule: Q01DX007 (sc), vehicle: steriod suspending solution) 47 % of control; (dose: 250.0 mg/kg/injection, schedule: Q01DX007 (sc), vehicle: steriod suspending solution) 55 % of control; (dose: 400.0 mg/kg/injection, schedule: Q01DX007 (sc), vehicle: steriod suspending solution) 58 % of control and 83 % of control; (dose: 666.0 mg/kg/injection, schedule: Q01DX007 (sc), vehicle: steriod suspending solution) 59 % of control and 62 % of control.
Turning to `CC1CN1C(=O)Nc1cccc2c(NC(=O)N3CC3C)cccc12` (stereo not drawn), the T/C was 66 % of control (dose: 9.5 mg/kg/injection, schedule: Q#A X014 (ip), vehicle: methylcellulose (MC)); 62 % of control (dose: 14.0 mg/kg/injection, schedule: Q#A X014 (ip), vehicle: methylcellulose (MC)); 31 % of control (dose: 20.5 mg/kg/injection, schedule: Q#A X014 (ip), vehicle: methylcellulose (MC)); 35 % of control (dose: 21.0 mg/kg/injection, schedule: Q#A X014 (ip), vehicle: methylcellulose (MC)); 23 % of control (dose: 31.5 mg/kg/injection, schedule: Q#A X014 (ip), vehicle: methylcellulose (MC)); 50 % of control under setting [1]. In addition, the T/C reads like this: (dose: 35.0 mg/kg/injection, schedule: Q01DX007 (ip), vehicle: saline) 53 % of control; (dose: 47.0 mg/kg/injection, schedule: Q#A X014 (ip), vehicle: methylcellulose (MC)) 7 % of control; (dose: 53.0 mg/kg/injection, schedule: Q01DX007 (ip), vehicle: saline) 46 % of control; (dose: 80.0 mg/kg/injection, schedule: Q01DX007 (ip), vehicle: saline) 35 % of control.
Regarding `COc1cc2c(c(OC3OC(CO)C(O)C(O)C3O)c1)C(=O)CC(c1ccc(O)cc1)O2` (stereo not drawn), the T/C by setting is: (dose: 100.0 mg/kg/injection, schedule: Q01DX007 (ip), vehicle: other) 90 % of control; (dose: 200.0 mg/kg/injection, schedule: Q01DX007 (ip), vehicle: other) 71 % of control.
Regarding `COC(=O)c1cc([N+](=O)[O-])cc([N+](=O)[O-])c1Cl`, the T/C reads like this: (dose: 6.0 mg/kg/injection, schedule: Q01DX007 (ip), vehicle: methylcellulose (MC)) 91 % of control; (dose: 12.0 mg/kg/injection, schedule: Q01DX007 (ip), vehicle: methylcellulose (MC)) 111 % of control; (dose: 25.0 mg/kg/injection, schedule: Q01DX007 (ip), vehicle: methylcellulose (MC)) 86 % of control.
Consider `[N-]=[N+]=C1N=CN=C1c1ncn[nH]1`, for which the T/C runs as follows: under setting [2], 107 % of control; under setting [3], 69 % of control.

(Values after PubChem BioAssay AID342 (DTP/NCI, 2004).)
